Laboratory results taken from patent US20190322960A1, “FRAGRANCE COMPOSITIONS AND METHODS OF USE THEREOF” (TAKASAGO INTERNATIONAL CORPORATION, priority 2016, published 2019).

Columns and labels:
salivary alpha-amylase = assay: Stress test (timed mathematical and word test), salivary alpha-amylase of panelists exposed to fragrance; type: in vivo, human; conditions: for effect on salivary alpha-amylase levels as compared to the DPG control (in words): exposed panelists, stress test; for % Change in Alpha-amylase (i.e., before versus after stress): panelists exposed during stress test, saliva before and immediately after stress test, DPG solvent, DPG control 51.9%
Method: (§1) Stress was induced in each panelist using a timed mathematical and word test, which was administered to panelists in a small group competition setting to induce stress in each of the panelists. At set time intervals during the test, each panelist was exposed to either a single fragrance compound or to a DPG control.
(§2) Saliva was collected for each panelist before and immediately after the stress test. Saliva samples were assayed for salivary alpha-amylase activity and salivary cortisol levels using a commercially available assay kit (e.g., Salimetrics®).
(§3) Table 1-A summarizes the percent change (i.e., before stress versus after stress) in the salivary alpha-amylase levels of panelists exposed to fragrance compounds of the present disclosure during the stress test. In addition, the table illustrates the statistical significance of the change in alpha-amylase levels (i.e., p-value or probability value, P) of each of the fragrance compounds as compared to DPG, representing the change in the control (i.e., just DPG without a fragrance compound before stress and after stress).
(§4) Saliva was collected before and immediately after the stress test. Saliva samples were assayed for salivary alpha-amylase activity and salivary cortisol levels using a commercially available assay kit (e.g., Salimetrics®).
as §3, with “5-A” for “1-A”

salivary cortisol = assay: Stress test (timed mathematical and word test), salivary cortisol of panelists exposed to fragrance; type: in vivo, human; conditions: for effect on salivary cortisol levels as compared to the control (in words): exposed panelists, stress test; for % Change in Cortisol (i.e., before versus after stress): panelists exposed during stress test, saliva before and immediately after stress test, DPG solvent, DPG control 10.8%
Method: as §1, §2
as §3, with “Table 1-B” for “Table 1-A”, “salivary cortisol” for “salivary alpha-amylase”, “in salivary cortisol” for “in alpha-amylase”
as §4
as §3, with “Table 5-B” for “Table 1-A”, “salivary cortisol” for “salivary alpha-amylase”, “in salivary cortisol” for “in alpha-amylase”

In the case of `CC1=CCC(C(C)CC2CCCC2=O)CC1` (centres unmarked) [2-(2-(4-methyl-3-cyclohexen-1-yl)propyl)cyclopentanone], the “effect on salivary alpha-amylase levels as compared to the DPG control (in words)” value (from here on “effect … compared to the DPG control (in words)”) (salivary alpha-amylase) is reported as “limited the increase in salivary alpha-amylase levels”, the “% Change in Alpha-amylase (i.e., before versus after stress)” value (“% Change in Alpha-amylase” below) (salivary alpha-amylase) is reported as 33.5% and the “effect on salivary cortisol levels as compared to the control (in words)” value (salivary cortisol) is reported as “the levels of salivary cortisol were limited”. The “% Change in Cortisol (i.e., before versus after stress)” value (shortened to “% Change in Cortisol”) (salivary cortisol) was −10.6%.
In the case of `C=C(C)[C@H]1CC=C(C)CC1` [Limonene, limonene], the “effect … compared to the DPG control (in words)” value (salivary alpha-amylase) is reported as “limited the increase in salivary alpha-amylase levels”, the “% Change in Alpha-amylase” value (salivary alpha-amylase) is reported as −15.9% and the “% Change in Cortisol” value (salivary cortisol) is reported as 21.05%.
`CC(=O)OC(C)(C)C1CC=C(C)CC1` (centres unmarked) [Terpinyl Acetate, terpinyl acetate] was tested, and the “effect … compared to the DPG control (in words)” value (salivary alpha-amylase) was “limited the increase in salivary alpha-amylase levels”, the “% Change in Alpha-amylase” value (salivary alpha-amylase) was 16.5% and the “effect on salivary cortisol levels as compared to the control (in words)” value (salivary cortisol) was “the levels of salivary cortisol were limited”. The “% Change in Cortisol” value (salivary cortisol) was −9.1%.
